Calls of active or inactive are those of the source. No cut-off for these calls is given here.
Assays:
THP-1 [1] = assay: Antiinflammatory activity against LPS-activated PMA-differentiated human THP-1 macrophages assessed as decrease in IFN-gamma production at 10 uM incubated for 24 hrs by ELISA coupled qRT-PCR analysis relative to control; type: functional; parameters: scale not given: the % may be the effect or the level left
THP-1 [2] = assay: Antiinflammatory activity against LPS-activated PMA-differentiated human THP-1 macrophages assessed as increase in IL-4 production at 10 uM incubated for 24 hrs by ELISA coupled qRT-PCR analysis; type: functional, cell-based
THP-1 [3] = assay: Antiinflammatory activity against LPS-activated PMA-differentiated human THP-1 monocytes assessed as increase in IL-10 production at 10 uM incubated for 24 hrs in the presence of N-(adamantan-1-yl)-4-(pentylamino)-[1,1'-biphenyl]-3-carboxamide by ELISA coupled qRT-PCR analysis; type: functional, cell-based
THP-1 [4] = assay: Antiinflammatory activity in human THP-1 monocytes assessed as decrease in TNF-alpha production at 10 uM incubated for 24 hrs in the presence of N-(adamantan-1-yl)-4-(pentylamino)-[1,1'-biphenyl]-3-carboxamide by ELISA coupled qRT-PCR analysis; type: functional, cell-based
THP-1 [5] = assay: Antiinflammatory activity in LPS-activated PMA-differentiated human THP-1 macrophages assessed as decrease in IFN-gamma production at 1 to 10 uM incubated for 24 hrs in the presence of JTE907 by ELISA coupled qRT-PCR analysis; type: functional, cell-based; conditions: dose 1-10 µM

| SMILES | Activity (THP-1 [1]) | Activity (THP-1 [2]) | Activity (THP-1 [3]) | Activity (THP-1 [4]) | Activity (THP-1 [5]) |
| --- | --- | --- | --- | --- | --- |
| O=C(NC1CCCCC1)c1cn(CCN2CCOCC2)c2cc(Cl)ccc2c1=O | 70% | Active | inactive | inactive | – |
| CCCCCNc1ccccc1C(=O)NC12CC3CC(CC(C3)C1)C2 | – | – | – | – | inactive |
